Tests used:
[1] = test system: SW780; test: cells; type: functional, cell-based; conditions: Homo sapiens;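 further: growth inhibition of the cells, read out with a cell viability assay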
Description: SANGER: Inhibition of human SW780 cell growth in a cell viability assay.

[2] = test system: 647-V; test: cells; type: functional, cell-based; conditions: Homo sapiens;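 further: growth inhibition of 647-V cells, read out with a cell viability assay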
Description: SANGER: Inhibition of human 647-V cell growth in a cell viability assay.

[3] = test system: CaR-1; test: cells; type: functional, cell-based; conditions: Homo sapiens;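 further: growth inhibition of human CaR-1 cancer cells, read out with a cell viability assay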
Description: SANGER: Inhibition of human CaR-1 cell growth in a cell viability assay.

[4] = test system: A-375; test: cells; type: functional, cell-based; conditions: Homo sapiens;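 further: growth inhibition of A375 cells, read out with a cell viability assay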
Description: SANGER: Inhibition of human A375 cell growth in a cell viability assay.

[5] = test system: LK-2; test: cells; type: functional, cell-based; conditions: Homo sapiens;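 further: growth inhibition of LK-2 cells, read out with a viability assay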
Description: SANGER: Inhibition of human LK-2 cell growth in a cell viability assay.

[6] = test system: GP5d; test: cells; type: functional, cell-based; conditions: Homo sapiens;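 further: growth inhibition of human GP5d cells, read out with a cell viability assay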
Description: SANGER: Inhibition of human GP5d cell growth in a cell viability assay.

[7] = test system: RPMI-7951; test: cells; type: functional, cell-based; conditions: Homo sapiens
Description: SANGER: Inhibition of human RPMI-7951 cell growth in a cell viability assay.

[8] = test system: HO-1-N-1; test: cells; type: functional, cell-based; conditions: Homo sapiens;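 further: growth inhibition of human HO-1-N-1 cells, read out with a cell viability assay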
Description: SANGER: Inhibition of human HO-1-N-1 cell growth in a cell viability assay.

[9] = test system: NB14; test: cells; type: functional, cell-based, Homo sapiens; conditions: Homo sapiens, NB14;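 further: growth inhibition of NB14 cells measured with a cell viability assay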
Description: SANGER: Inhibition of human NB14 cell growth in a cell viability assay.

[10] = test system: OVCAR-5; test: cells; type: functional, cell-based; conditions: Homo sapiens;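 further: growth inhibition of human OVCAR-5 cells, read out with a cell viability assay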
Description: SANGER: Inhibition of human OVCAR-5 cell growth in a cell viability assay.

[11] = test system: MFE-280; test: cells; type: functional, cell-based; conditions: Homo sapiens;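 further: growth inhibition of MFE-280 cells, determined with a cell viability readout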
Description: SANGER: Inhibition of human MFE-280 cell growth in a cell viability assay.

[12] = test system: NCI-H520; test: cells; type: functional, cell-based; conditions: Homo sapiens;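 further: growth inhibition of NCI-H520 cells, measured by a cell viability assay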
Description: SANGER: Inhibition of human NCI-H520 cell growth in a cell viability assay.

[13] = test system: RCM-1; test: cells; type: functional, cell-based; conditions: Homo sapiens;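 further: growth inhibition of the RCM-1 line, determined with a cell viability readout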
Description: SANGER: Inhibition of human RCM-1 cell growth in a cell viability assay.

[14] = test system: NCI-H650; test: cells; type: functional, cell-based; conditions: Homo sapiens;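 further: growth inhibition of NCI-H650 cells, read out by a viability assay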
Description: SANGER: Inhibition of human NCI-H650 cell growth in a cell viability assay.

[15] = test system: HCC 2998; test: cells; type: functional, cell-based; conditions: Homo sapiens;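 further: growth inhibition of human HCC2998 cells, measured with a cell viability read-out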
Description: SANGER: Inhibition of human HCC2998 cell growth in a cell viability assay.

[16] = test system: SW-620; test: cells; type: functional, cell-based; conditions: Homo sapiens;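 further: growth inhibition of human SW-620 cells, measured by a cell viability assay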
Description: SANGER: Inhibition of human SW620 cell growth in a cell viability assay.

[17] = test system: DU-145; test: cells; type: functional, cell-based; conditions: Homo sapiens
Description: SANGER: Inhibition of human DU-145 cell growth in a cell viability assay.

[18] = test system: TYK-nu; test: cells; type: functional, cell-based; conditions: Homo sapiens;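 further: growth inhibition of human TYK-nu cells, read out by a cell viability assay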
Description: SANGER: Inhibition of human TYK-nu cell growth in a cell viability assay.

[19] = test system: HOP-92; test: cells; type: functional, cell-based; conditions: Homo sapiens;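 further: cell viability readout, with IC50 reflecting inhibition of HOP-92 cell growth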
Description: SANGER: Inhibition of human HOP-92 cell growth in a cell viability assay.

[20] = test system: HCC1569; test: cells; type: functional, cell-based; conditions: Homo sapiens;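 further: growth inhibition of human HCC1569 cells, read out with a cell viability assay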
Description: SANGER: Inhibition of human HCC1569 cell growth in a cell viability assay.

[21] = test system: VM-CUB-1; test: cells; type: functional, cell-based; conditions: Homo sapiens;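 further: cell viability assay measuring growth inhibition of the human VM-CUB-1 cell line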
Description: SANGER: Inhibition of human VM-CUB-1 cell growth in a cell viability assay.

[22] = test system: NCI-H630; test: cells; type: functional, cell-based; conditions: Homo sapiens;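 further: growth inhibition of NCI-H630 cells, read out with a cell viability assay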
Description: SANGER: Inhibition of human NCI-H630 cell growth in a cell viability assay.

[23] = test system: NB7; test: cells; type: functional, cell-based, Homo sapiens; conditions: Homo sapiens, NB7;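 further: growth inhibition of NB7 cells, read out with a cell viability assay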
Description: SANGER: Inhibition of human NB7 cell growth in a cell viability assay.

[24] = test system: HuP-T3; test: cells; type: functional, cell-based; conditions: Homo sapiens;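 further: HuP-T3 cell growth inhibition, read out with a cell viability assay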
Description: SANGER: Inhibition of human HuP-T3 cell growth in a cell viability assay.

[25] = test system: VMRC-RCZ; test: cells; type: functional, cell-based; conditions: Homo sapiens
Description: SANGER: Inhibition of human VMRC-RCZ cell growth in a cell viability assay.

[26] = test system: NCI-H441; test: cells; type: functional, cell-based; conditions: Homo sapiens;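 further: growth inhibition of NCI-H441 cells, read out with a cell viability assay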
Description: SANGER: Inhibition of human NCI-H441 cell growth in a cell viability assay.

[27] = test system: KYSE-520 cell line; test: cells; type: functional, cell-based; conditions: Homo sapiens;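 further: growth inhibition of human KYSE-520 cells, read out with a viability assay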
Description: SANGER: Inhibition of human KYSE-520 cell growth in a cell viability assay.

[28] = test system: HCC70; test: cells; type: functional, cell-based; conditions: Homo sapiens;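 further: cell viability assay measuring how strongly the compound suppresses proliferation of HCC70 cells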
Description: SANGER: Inhibition of human HCC70 cell growth in a cell viability assay.

[29] = test system: CAL-51; test: cells; type: functional, cell-based; conditions: Homo sapiens;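 further: human CAL-51 cell line, growth inhibition read out via a cell viability assay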
Description: SANGER: Inhibition of human CAL-51 cell growth in a cell viability assay.

[30] = test system: CAL-54; test: cells; type: functional, cell-based; conditions: Homo sapiens;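 further: growth inhibition of CAL-54 cells, read out by a viability measurement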
Description: SANGER: Inhibition of human CAL-54 cell growth in a cell viability assay.

[31] = test system: C32; test: cells; type: functional, cell-based; conditions: Homo sapiens;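 further: cell viability assay, with IC50 reflecting inhibition of C32 cell growth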
Description: SANGER: Inhibition of human C32 cell growth in a cell viability assay.

[32] = test system: SAS; test: cells; type: functional, cell-based; conditions: Homo sapiens;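 further: growth inhibition of SAS cells, read out with a cell viability assay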
Description: SANGER: Inhibition of human SAS cell growth in a cell viability assay.

[33] = test system: T47D; test: cells; type: functional, cell-based; conditions: Homo sapiens;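 further: growth inhibition of human T47D cells, measured with a cell viability assay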
Description: SANGER: Inhibition of human T47D cell growth in a cell viability assay.

[34] = test system: PANC-08-13; test: cells; type: functional, cell-based; conditions: Homo sapiens
Description: SANGER: Inhibition of human PANC-08-13 cell growth in a cell viability assay.

[35] = test system: CAL-72; test: cells; type: functional, cell-based; conditions: Homo sapiens;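 further: cell viability assay measuring inhibition of proliferation in the CAL-72 cell line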
Description: SANGER: Inhibition of human CAL-72 cell growth in a cell viability assay.

[36] = test system: OE33; test: cells; type: functional, cell-based; conditions: Homo sapiens;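 further: growth inhibition of human OE33 cells, measured by a cell viability assay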
Description: SANGER: Inhibition of human OE33 cell growth in a cell viability assay.

[37] = test system: BHY; test: cells; type: functional, cell-based; conditions: Homo sapiens;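 further: cell growth inhibition read out by a viability assay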
Description: SANGER: Inhibition of human BHY cell growth in a cell viability assay.

[38] = test system: MKN-28; test: cells; type: functional, cell-based; conditions: Homo sapiens;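 further: cell viability assay read-out, IC50 reflects suppression of growth of human MKN-28 cells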
Description: SANGER: Inhibition of human MKN28 cell growth in a cell viability assay.

[39] = test system: SF-295; test: cells; type: functional, cell-based; conditions: Homo sapiens;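 further: growth inhibition of SF-295 cells, read out with a cell viability assay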
Description: SANGER: Inhibition of human SF295 cell growth in a cell viability assay.

[40] = test system: NCI-H292; test: cells; type: functional, cell-based; conditions: Homo sapiens;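 further: growth inhibition of NCI-H292 cells, read out with a cell viability assay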
Description: SANGER: Inhibition of human NCI-H292 cell growth in a cell viability assay.

[41] = test system: Daoy; test: cells; type: functional, cell-based; conditions: Homo sapiens;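 further: daoy cell growth inhibition, read out as cell viability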
Description: SANGER: Inhibition of human Daoy cell growth in a cell viability assay.

[42] = test system: OPM-2; test: cells; type: functional, cell-based, Homo sapiens; conditions: Homo sapiens, OPM-2;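 further: growth of OPM-2 cells measured with a viability assay, IC50 for suppression of proliferation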
Description: SANGER: Inhibition of human OPM-2 cell growth in a cell viability assay.

[43] = test system: NCI-H2141; test: cells; type: functional, cell-based, Homo sapiens; conditions: Homo sapiens, NCI-H2141;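 further: growth inhibition of human NCI-H2141 cells, read out with a cell viability assay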
Description: SANGER: Inhibition of human NCI-H2141 cell growth in a cell viability assay.

[44] = test system: IM-9; test: SANGER: Inhibition of human IM-9 cell growth in a cell viability assay.; type: functional, cell-based; conditions: Homo sapiens, IM-9
[45] = test system: NCI-H719; test: cells; type: functional, cell-based, Homo sapiens; conditions: Homo sapiens, NCI-H719;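 further: growth inhibition of the cultured cell line, read out with a viability assay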
Description: SANGER: Inhibition of human NCI-H719 cell growth in a cell viability assay.

[46] = test system: SNU-16; test: cells; type: functional, cell-based, Homo sapiens; conditions: Homo sapiens, SNU-16;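 further: growth inhibition of human SNU-16 cells, determined with a cell viability readout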
Description: SANGER: Inhibition of human NCI-SNU-16 cell growth in a cell viability assay.

[47] = test system: NCI-H187; test: cells; type: functional, cell-based, Homo sapiens; conditions: Homo sapiens, NCI-H187;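 further: growth inhibition of NCI-H187 cells, read out as cell viability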
Description: SANGER: Inhibition of human NCI-H187 cell growth in a cell viability assay.

[48] = test system: CPC-N; test: cells; type: functional, cell-based, Homo sapiens; conditions: Homo sapiens, CPC-N;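 further: growth inhibition of CPC-N cells, with a cell viability assay as the readout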
Description: SANGER: Inhibition of human CPC-N cell growth in a cell viability assay.

[49] = test system: HuTu80; test: cells; type: functional, cell-based, Homo sapiens, HUTU-80; conditions: Homo sapiens, HuTu80;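 further: growth inhibition of HuTu80 human cells, determined with a cell viability readout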
Description: SANGER: Inhibition of human HUTU-80 cell growth in a cell viability assay.

[50] = test system: NCI-H1436; test: cells; type: functional, cell-based, Homo sapiens; conditions: Homo sapiens, NCI-H1436;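 further: growth suppression of human NCI-H1436 cells, determined with a cell viability readout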
Description: SANGER: Inhibition of human NCI-H1436 cell growth in a cell viability assay.

[51] = test system: L-540; test: cells; type: functional, cell-based, Homo sapiens; conditions: Homo sapiens, L-540;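 further: growth inhibition of the human L-540 cell line, read out with a viability assay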
Description: SANGER: Inhibition of human L-540 cell growth in a cell viability assay.

[52] = test system: SUP-T1; test: cells; type: functional, cell-based, Homo sapiens; conditions: Homo sapiens, SUP-T1;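 further: growth inhibition of human SUP-T1 cells, read out as cell viability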
Description: SANGER: Inhibition of human SUP-T1 cell growth in a cell viability assay.

[53] = test system: IST-SL2; test: cells; type: functional, cell-based, Homo sapiens; conditions: Homo sapiens, IST-SL2
Description: SANGER: Inhibition of human IST-SL2 cell growth in a cell viability assay.

[54] = test system: LOUCY; test: cells; type: functional, cell-based, Homo sapiens; conditions: Homo sapiens, LOUCY
Description: SANGER: Inhibition of human LOUCY cell growth in a cell viability assay.

[55] = test system: DMS-79; test: cells; type: functional, cell-based, Homo sapiens; conditions: Homo sapiens, DMS-79
Description: SANGER: Inhibition of human DMS-79 cell growth in a cell viability assay.

[56] = test system: CP66-MEL; test: cells; type: functional, cell-based; conditions: Homo sapiens
Description: SANGER: Inhibition of human CP66-MEL cell growth in a cell viability assay.

SMILES: CN(C)CCOc1ccc(-c2nc(-c3ccncc3)c(-c3ccc4c(c3)CC/C4=N\O)[nH]2)cc1 [SB590885]
- IC50 [1]: > 5 µM
- IC50 [2]: > 5 µM
- IC50 [3]: > 5 µM
- IC50 [4]: 0.282 µM
- IC50 [5]: > 5 µM
- IC50 [6]: > 5 µM
- IC50 [7]: > 5 µM
- IC50 [8]: > 5 µM
- IC50 [9]: > 5 µM
- IC50 [10]: > 5 µM
- IC50 [11]: > 5 µM
- IC50 [12]: > 5 µM
- IC50 [13]: > 5 µM
- IC50 [14]: > 5 µM
- IC50 [15]: > 5 µM
- IC50 [16]: > 5 µM
- IC50 [17]: > 5 µM
- IC50 [18]: 1.8 µM
- IC50 [19]: 1.11 µM
- IC50 [20]: > 5 µM
- IC50 [21]: > 5 µM
- IC50 [22]: > 5 µM
- IC50 [23]: > 5 µM
- IC50 [24]: > 5 µM
- IC50 [25]: > 5 µM
- IC50 [26]: > 5 µM
- IC50 [27]: > 5 µM
- IC50 [28]: > 5 µM
- IC50 [29]: > 5 µM
- IC50 [30]: > 5 µM
- IC50 [31]: 0.0996 µM
- IC50 [32]: > 5 µM
- IC50 [33]: > 5 µM
- IC50 [34]: > 5 µM
- IC50 [35]: > 5 µM
- IC50 [36]: > 5 µM
- IC50 [37]: > 5 µM
- IC50 [38]: > 5 µM
- IC50 [39]: > 5 µM
- IC50 [40]: 4.38 µM
- IC50 [41]: > 5 µM

SMILES: NC(=O)c1cccc(-c2cc(Nc3ccc(OC(F)(F)F)cc3)ncn2)c1
- IC50 [42]: > 1.28 µM
- IC50 [43]: > 1.28 µM
- IC50 [44]: > 1.28 µM
- IC50 [9]: > 1.28 µM
- IC50 [45]: > 1.28 µM
- IC50 [46]: > 1.28 µM
- IC50 [47]: > 1.28 µM
- IC50 [48]: > 1.28 µM
- IC50 [49]: > 1.28 µM
- IC50 [50]: > 1.28 µM
- IC50 [23]: > 1.28 µM
- IC50 [51]: > 1.28 µM
- IC50 [52]: > 1.28 µM
- IC50 [53]: > 1.28 µM
- IC50 [54]: > 1.28 µM
- IC50 [55]: > 1.28 µM
- IC50 [56]: > 1.28 µM

SMILES: C=CC(=O)N1CCCC(Nc2nc(Nc3ccc(N(C)C(=O)CC)cc3)nc3[nH]cnc23)C1 (stereo unspecified)
- IC50 [42]: > 10.2 µM
- IC50 [43]: > 10.2 µM
- IC50 [44]: > 10.2 µM
- IC50 [9]: > 10.2 µM
- IC50 [45]: > 10.2 µM
- IC50 [46]: > 10.2 µM
- IC50 [47]: > 10.2 µM
- IC50 [48]: > 10.2 µM
- IC50 [49]: > 10.2 µM
- IC50 [50]: > 10.2 µM
- IC50 [23]: > 10.2 µM
- IC50 [51]: > 10.2 µM
- IC50 [52]: > 10.2 µM
- IC50 [53]: > 10.2 µM
- IC50 [54]: > 10.2 µM
- IC50 [55]: > 10.2 µM
- IC50 [56]: > 10.2 µM

SMILES: NC1(c2ccc(-c3nc4ccn5c(=O)[nH]nc5c4cc3-c3ccccc3)cc2)CCC1 [MK-2206]
- IC50 [1]: > 4 µM
- IC50 [2]: > 4 µM
- IC50 [3]: > 4 µM
- IC50 [5]: > 4 µM
- IC50 [6]: > 4 µM
- IC50 [7]: > 4 µM
- IC50 [8]: > 4 µM
- IC50 [9]: > 4 µM
- IC50 [10]: > 4 µM
- IC50 [11]: 0.965 µM
- IC50 [12]: 0.986 µM
- IC50 [13]: > 4 µM
- IC50 [14]: > 4 µM
- IC50 [15]: > 4 µM
- IC50 [16]: > 4 µM
- IC50 [17]: 0.647 µM
- IC50 [18]: > 4 µM
- IC50 [19]: 0.872 µM
- IC50 [20]: > 4 µM
- IC50 [21]: 2.39 µM
- IC50 [22]: > 4 µM
- IC50 [23]: 0.824 µM
- IC50 [24]: > 4 µM
- IC50 [25]: > 4 µM
- IC50 [26]: > 4 µM
- IC50 [27]: > 4 µM
- IC50 [28]: 0.598 µM
- IC50 [29]: > 4 µM
- IC50 [30]: 1.71 µM
- IC50 [31]: > 4 µM
- IC50 [32]: > 4 µM
- IC50 [33]: 0.282 µM
- IC50 [34]: > 4 µM
- IC50 [35]: > 4 µM
- IC50 [36]: > 4 µM
- IC50 [37]: > 4 µM
- IC50 [39]: > 4 µM
- IC50 [40]: > 4 µM
- IC50 [41]: > 4 µM

SMILES: Cc1cc(N2CCOCC2)cc2[nH]c(-c3c(NC[C@@H](O)c4cccc(Cl)c4)cc[nH]c3=O)nc12
- IC50 [42]: 0.525 µM
- IC50 [43]: > 5.12 µM
- IC50 [44]: > 5.12 µM
- IC50 [9]: > 5.12 µM
- IC50 [45]: > 5.12 µM
- IC50 [46]: 0.873 µM
- IC50 [47]: 2.34 µM
- IC50 [48]: 3.59 µM
- IC50 [49]: 0.466 µM
- IC50 [50]: > 5.12 µM
- IC50 [23]: > 5.12 µM
- IC50 [51]: > 5.12 µM
- IC50 [52]: > 5.12 µM
- IC50 [53]: > 5.12 µM
- IC50 [54]: > 5.12 µM
- IC50 [55]: > 5.12 µM
- IC50 [56]: > 5.12 µM
